pIC50: −log10 of the molar value.
Target: hDAT (Homo sapiens, UniProt Q01959)
Assay: Dopamine transporter (hDAT) membrane binding assay

hDAT, sequence (Q01959 whole entry): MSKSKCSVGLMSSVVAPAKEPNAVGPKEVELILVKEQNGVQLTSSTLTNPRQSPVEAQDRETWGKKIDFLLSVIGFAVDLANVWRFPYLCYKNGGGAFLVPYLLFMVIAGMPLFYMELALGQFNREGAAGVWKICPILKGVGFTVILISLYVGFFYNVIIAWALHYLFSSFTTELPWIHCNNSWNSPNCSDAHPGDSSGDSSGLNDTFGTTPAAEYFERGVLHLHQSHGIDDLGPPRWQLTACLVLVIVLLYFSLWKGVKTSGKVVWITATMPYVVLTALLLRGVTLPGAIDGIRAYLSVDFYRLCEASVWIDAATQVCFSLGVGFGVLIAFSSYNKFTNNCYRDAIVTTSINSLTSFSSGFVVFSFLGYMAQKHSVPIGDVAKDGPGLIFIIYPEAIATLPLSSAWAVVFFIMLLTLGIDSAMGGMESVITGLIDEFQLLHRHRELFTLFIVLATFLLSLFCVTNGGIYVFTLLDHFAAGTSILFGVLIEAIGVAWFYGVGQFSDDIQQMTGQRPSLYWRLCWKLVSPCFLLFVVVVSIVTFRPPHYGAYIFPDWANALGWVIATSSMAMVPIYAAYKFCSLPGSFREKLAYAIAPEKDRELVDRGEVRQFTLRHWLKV

pIC50: < 6.00
SMILES: CCNC[C@@H](O)CCN1c2ccccc2N(c2ccccc2F)S1(=O)=O

Source: patent US20080194654A1, “HYDROXY-SUBSTITUTED ARYL SULFAMIDE DERIVATIVES AND METHODS OF THEIR USE” (Wyeth, priority 2006, published 2008)
